Experimental data taken from patent US20050249818A1, “Polycationic antimicrobial therapeutic” (priority 2004, published 2005).

Tested on: C. albicans #5
Assay type: in vivo
Protocol: Five-week-old female CD-1 mice were purchased from Charles River Laboratories. Mice were placed in cages in groups of five. To immunosuppress the mice and allow for the establishment of mucosal infection, 5-FU was given intravenously once every 7 days, starting on day-2. Antibiotics were given in the drinking water in autoclaved bottles to reduce potential confounding secondary bacterial infections. Gentamycin at 0.2 mg/ml, clindamycin at 1 mg/ml, vancomycin 1 mg/ml were added to sterile drinking water. Bottles and drinking water were changed every day. Imipenem is given at 5 mg/mouse (IP, QD). Antibiotics were begun on day-3.
C. albicans #5 was transferred from storage at −80° C. and streaked for isolation on Sabouraud Dextrose Agar plates with chloramphenicol. The plates were incubated at 35° C. for 48 hours. The organisms were inoculated in sterile bottles each containing 100 ml of SAAMF broth and incubated for 48 hours at 35° C. on a gyratory shaker. C. albicans was harvested by transferring the broth culture to sterile 50 ml centrifuge tubes and centrifuged for 15 minutes at 2000 RPM. The cells were washed once with saline and then suspended in saline. The cells were counted using a hemacytometer. Inoculum dilutions were made in sterile water. The final inoculum was 2×10^8 cells/ml of drinking sterile water plus antibiotics. The inoculum viability determined by plating serial dilutions on SDA plates with chloramphenicol was 1.85×10^8 cells per ml. Plates were incubated overnight at 35° C. for verification count of the inoculum.
In the morning before the preparation of the inoculum the drinking bottles were removed 8 hours prior to replacement with the inoculum suspension of C. albicans. The mice were allowed to drink from this suspension for 24 hours at which time the inoculum suspension was removed and replaced with drinking water containing antibiotics (day 0).
Beginning on day 4 postinfection, mice were untreated or treated with either, Surfacine D™ diluent (undiluted), 3% Surfacine D, PEG dilutent or 1% clotrimazole.
PEG 400, 1% clotrimazole in PEG400, or given no treatment. Treatments were done for 10 consecutive days and were given twice daily. Treatments were done by dipping a sterile calcium alginate swab into the solution and then swabbing the oral cavity of the mouse to ensure coverage with the solution. It was not necessary to anesthetize the animals to perform the treatments. Treatment ended on day 13 postinfection.
On day 15 postinfection all surviving mice were euthanatized using CO2 gas. The tongue of each mouse was swabbed with sterile calcium alginate swab and the swab placed in 0.4 ml of 1×PBS. The swab in PBS was vigorously mixed with a vortex mixer to dissolve the alginate and release the organisms into suspension, and two 10-fold dilutions were made and plated in duplicate on SDA without chloramphenicol.
Survival was analyzed using a log rank test and comparative CFU between groups was analyzed using a Mann-Whitney U test. A log10 value of 6.5 was assigned as CFU for data points missing due to the death of the animal. This value is arbitrarily set to be higher than any burden recovered from surviving mice and assures that death is considered as a worse outcome than is survival regardless of burden.

Clc1ccccc1C(c1ccccc1)(c1ccccc1)n1ccnc1 [1% clotrimazole, clotrimazole]
reduction in CFU in comparison with the untreated controls (CFU recovered from the tongue, day 15 postinfection): ~30 fold | ranking among the treatments (in vivo): most effective of the treatments | behavioral observations during treatments (in vivo, po): did not exhibit these behaviors or symptoms | deaths (mice, oral swab twice daily for 10 days, to day 15 postinfection): one | gross pathological appearance of the tongue mucosal surface at necropsy (surviving mice, day 15 postinfection): normal mucosal surface appearance
